We go through 2 compounds from patent US7238525B2, “Strategy for leukemia therapy” (The Regents of the University of California, priority 2000, dated 2007).

The subject of series [1] is K562 cells. As to the kind of experiment: Cell survival assay, K562 cells. In kind it is cell-based. The following applies: 72 hours treatment, then drug removal. On the procedure:
[…]. […] […].
After 48 h (TonB, TonB210) or 72 h (K562), live cells were counted with the Trypan blue exclusion assay. Cells were then washed extensively with PBS and placed in growth media. Trypan blue cell counts were repeated every 48 h and followed by feeding with fresh media. Cell counts were stopped when the number of viable cells was higher than the number of cells originally plated.

The test system of another series is TonB cells. The settings on record: 48 hours treatment, with IL-3.
In a further series the test system is Bcr-Abl-KD. As to the kind of experiment: Nuclear localization by immunofluorescence in transfected Abl−/− fibroblasts (Bcr-Abl-KD). The settings on record: LMB alone. The series is classed as cell-based.
For series [2] the following is noted: human, in vivo; cited from earlier work.
Series [3] relates to K562 cells. As to the kind of experiment: Tyrosine-phosphorylated proteins in total cell lysates, K562. The settings on record: at the end of drug treatments.
Protocol: The tyrosine-phosphorylated proteins in total cell lysates were examined at the end of drug treatments and then before their precipitous death.
Transfection and Immunoblotting. […] Immunoblots were performed using 1 μg/ml 4G10 monoclonal antibody against phosphotyrosine (Upstate Biotechnology, Waltham, Mass.), or 1 μg/ml monoclonal antibody against Abl (8E9) (Pharmingen, San Diego, Calif.).
The subject of another series is human leukemic cells. The following applies: in vivo STI571 treatment; cited from earlier work.
For series [4] the following is noted: human, in vivo; cited from earlier work. The source holds these as a separate data set.
In another series the test system is untransfected cells. As to the kind of experiment: TUNEL assay, untransfected cells. The series is classed as cell-based. The settings on record: STI571 alone, BCR-Abl-NES experiment. From the text: It is known that activation of the nuclear Abl tyrosine kinase by DNA damage can contribute to the induction of apoptosis (Gong et al., 1999; Wang, 2000). Similarly, when translocated into the nucleus, Bcr-Abl kinase can activate apoptosis. […]. […] However, removal of the inhibitor while maintaining the Bcr-Abl in the nucleus strongly stimulated apoptosis. […]. With this protocol, between 70–80% of the Bcr-Abl expressing cells were positive for TUNEL staining, whereas the apoptosis rate remained at the 10% level with untransfected cells (Table 2). By expressing Bcr-Abl-KD and treating cells with LMB alone, it was confirmed that an active nuclear Bcr-Abl kinase was required to induce apoptosis.
Cell Death Assays. […] […].

As for `CCC(=C/[C@H](C)C/C=C/C(C)=C/[C@@H](C)C(=O)[C@@H](C)[C@H](O)[C@@H](C)C/C(C)=C/C(=O)O)/C=C/[C@@H]1OC(=O)C=C[C@@H]1C` [LMB, leptomycin B], the viable cell numbers result with K562 cells [1] was “initial decline in cell number”; with TonB cells, “caused a reduction in cell numbers”. In addition, the “nuclear fraction of Bcr-Abl-KD” value in the series on Bcr-Abl-KD is 25–35%. The “toxicity observed in a phase I clinical trial” value in series [2] was “neuronal toxicity”.

As for `Cc1ccc(NC(=O)c2ccc(CN3CCN(C)CC3)cc2)cc1Nc1nccc(-c2cccnc2)n1` [STI571, 4-[(4-methyl-piperazinyl)methyl]-N-[4-methyl-3-[[4-(3-pyrodnyl)-2-pyrimidinyl]amin]phenyl]benzamide methanesul-fonate], the “overall levels of tyrosine-phosphorylated proteins” value with K562 cells [3] is “decreased”. Also, in the series on K562 cells [1], the viable cell numbers entry is “initial death”. Besides, the tumors eradicated with human leukemic cells is recorded as 70–100%. Further, the maximum tolerated dose result in series [4] is “No maximum tolerated dose has been identified”. Further, the TUNEL-positive untransfected cells in the series on untransfected cells was 3%.
